From article PMC9898036, “VIP152 is a selective CDK9 inhibitor with pre-clinical in vitro and in vivo efficacy in chronic lymphocytic leukemia” (Leukemia, 2022)
Read-outs that look alike come from different tables or passages of the source.

Experiments:
Assay in all cases: DiscoverX KINOMEscan kinase profiling (468 assays)
Format in all cases: binding
human kinome [1] = target: human kinome (Homo sapiens, UniProt P21802); conditions: FGFR2; 100 nM; read-out: Percent Control
Outline: (§1)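 VIP152 was run in DMSO, alongside a DMSO control. Readout was qPCR of DNA-tagged kinase still bound to bead-immobilized biotinylated kinase ligands after compound competition.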

human kinome [2] = target: human kinome (Homo sapiens, UniProt O95819); conditions: MAP4K4; 100 nM; read-out: Percent Control
Outline: as §1

human kinome [3] = target: human kinome (Homo sapiens, UniProt Q16539); conditions: read-out: Percent Control
human kinome (Homo sapiens, UniProt Q16539), sequence (Q16539 whole entry): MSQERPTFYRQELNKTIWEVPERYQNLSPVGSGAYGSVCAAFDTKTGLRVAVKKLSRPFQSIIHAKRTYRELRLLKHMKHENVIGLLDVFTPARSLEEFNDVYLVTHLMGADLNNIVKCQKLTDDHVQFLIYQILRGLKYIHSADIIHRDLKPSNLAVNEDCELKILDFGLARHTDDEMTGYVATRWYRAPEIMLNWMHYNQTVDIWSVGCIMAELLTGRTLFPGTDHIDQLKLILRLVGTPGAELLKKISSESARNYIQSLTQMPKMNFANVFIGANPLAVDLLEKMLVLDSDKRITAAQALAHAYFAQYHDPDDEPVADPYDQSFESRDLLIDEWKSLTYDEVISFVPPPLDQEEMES
Outline: as §1

human kinome [4] = target: human kinome (Homo sapiens, UniProt P10721, D816H); conditions: KIT(D816H); 100 nM; read-out: Percent Control
Outline: as §1

human kinome [5] = target: human kinome (Homo sapiens, UniProt P42336, E542K); conditions: read-out: Percent Control
human kinome (Homo sapiens, UniProt P42336, E542K), sequence (P42336 whole entry E542K): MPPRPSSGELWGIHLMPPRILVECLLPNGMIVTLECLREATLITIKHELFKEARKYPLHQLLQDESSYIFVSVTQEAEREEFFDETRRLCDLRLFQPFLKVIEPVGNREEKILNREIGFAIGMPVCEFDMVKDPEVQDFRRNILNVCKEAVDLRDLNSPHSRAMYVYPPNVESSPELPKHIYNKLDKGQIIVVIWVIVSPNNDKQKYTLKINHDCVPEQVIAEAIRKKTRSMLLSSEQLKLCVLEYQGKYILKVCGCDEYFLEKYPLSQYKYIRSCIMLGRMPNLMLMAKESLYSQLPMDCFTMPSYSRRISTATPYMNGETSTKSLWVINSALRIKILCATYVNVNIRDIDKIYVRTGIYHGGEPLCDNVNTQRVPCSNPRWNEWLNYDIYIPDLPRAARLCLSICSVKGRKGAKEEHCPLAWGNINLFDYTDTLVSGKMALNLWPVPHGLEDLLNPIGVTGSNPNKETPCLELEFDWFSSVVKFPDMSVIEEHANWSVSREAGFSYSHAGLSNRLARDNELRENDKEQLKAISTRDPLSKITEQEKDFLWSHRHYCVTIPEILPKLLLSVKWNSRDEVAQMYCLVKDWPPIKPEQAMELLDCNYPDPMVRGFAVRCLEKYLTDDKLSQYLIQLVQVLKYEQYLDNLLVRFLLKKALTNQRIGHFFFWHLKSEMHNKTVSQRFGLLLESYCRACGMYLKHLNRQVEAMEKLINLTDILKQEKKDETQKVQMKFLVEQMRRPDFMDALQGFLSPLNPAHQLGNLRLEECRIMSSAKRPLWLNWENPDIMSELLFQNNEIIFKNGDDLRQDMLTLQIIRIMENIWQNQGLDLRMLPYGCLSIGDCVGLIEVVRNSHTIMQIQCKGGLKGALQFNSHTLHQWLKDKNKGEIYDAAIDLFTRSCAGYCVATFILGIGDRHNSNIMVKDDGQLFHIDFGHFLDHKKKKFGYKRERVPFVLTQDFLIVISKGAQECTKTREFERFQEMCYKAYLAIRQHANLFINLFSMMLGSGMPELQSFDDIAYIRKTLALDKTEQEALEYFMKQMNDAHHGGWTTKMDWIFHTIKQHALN
Outline: as §1

human kinome [6] = target: human kinome (Homo sapiens, UniProt P42336, E545A); conditions: read-out: Percent Control
human kinome (Homo sapiens, UniProt P42336, E545A), sequence (P42336 whole entry E545A): as the sequence (P42336 whole entry E542K) above, with K542E, E545A counted along it
Outline: as §1

human kinome [7] = target: human kinome (Homo sapiens, UniProt P43403); conditions: kinase ZAP70 (Entrez ZAP70); compound concentration 1000 nM; read-out: Percent Control
Outline: as §1

human kinome [8] = target: human kinome (Homo sapiens, UniProt P78368); conditions: CSNK1G2; 100 nM; read-out: Percent Control
Outline: as §1

human kinome [9] = target: human kinome (Homo sapiens, UniProt O00141); conditions: kinase SGK (Entrez SGK1); compound concentration 1000 nM; read-out: Percent Control
human kinome (Homo sapiens, UniProt O00141), sequence (O00141 whole entry): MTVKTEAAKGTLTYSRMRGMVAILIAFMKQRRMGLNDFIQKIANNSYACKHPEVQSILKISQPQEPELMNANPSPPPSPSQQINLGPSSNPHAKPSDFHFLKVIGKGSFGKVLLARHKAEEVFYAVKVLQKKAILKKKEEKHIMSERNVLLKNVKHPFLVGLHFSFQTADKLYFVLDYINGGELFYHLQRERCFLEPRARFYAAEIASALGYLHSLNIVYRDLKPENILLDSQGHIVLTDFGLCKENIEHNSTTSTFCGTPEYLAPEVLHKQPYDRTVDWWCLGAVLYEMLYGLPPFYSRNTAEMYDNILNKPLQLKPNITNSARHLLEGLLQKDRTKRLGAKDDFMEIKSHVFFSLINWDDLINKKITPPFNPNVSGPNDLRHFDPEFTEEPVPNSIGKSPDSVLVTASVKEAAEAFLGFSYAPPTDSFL
Outline: as §1

human kinome [10] = target: human kinome (Homo sapiens, UniProt Q86Y07); conditions: kinase VRK2 (Entrez VRK2); compound concentration 1000 nM; read-out: Percent Control
Outline: as §1

human kinome [11] = target: human kinome (Homo sapiens, UniProt Q5VT25); conditions: MRCKA (Entrez CDC42BPA); 100 nM; read-out: Percent Control
Outline: as §1

human kinome [12] = target: human kinome (Homo sapiens, UniProt P42336, H1047Y); conditions: read-out: Percent Control
human kinome (Homo sapiens, UniProt P42336, H1047Y), sequence (P42336 whole entry H1047Y): as the sequence (P42336 whole entry E542K) above, with K542E, H1047Y counted along it
Outline: as §1

human kinome [13] = target: human kinome (Homo sapiens, UniProt P46734); conditions: MEK3 (Entrez MAP2K3); 100 nM; read-out: Percent Control
Outline: as §1

human kinome [14] = target: human kinome (Homo sapiens, UniProt Q9BWU1); conditions: CDK11 (Entrez CDK19); 100 nM; read-out: Percent Control
Outline: as §1

human kinome [15] = target: human kinome (Homo sapiens, UniProt Q9BYT3); conditions: kinase STK33 (Entrez STK33); compound concentration 1000 nM; read-out: Percent Control
Outline: as §1

human kinome [16] = target: human kinome (Homo sapiens, UniProt P00533, L861Q); conditions: EGFR(L861Q); 100 nM; read-out: Percent Control
human kinome (Homo sapiens, UniProt P00533, L861Q), sequence (P00533 25-1210 L861Q): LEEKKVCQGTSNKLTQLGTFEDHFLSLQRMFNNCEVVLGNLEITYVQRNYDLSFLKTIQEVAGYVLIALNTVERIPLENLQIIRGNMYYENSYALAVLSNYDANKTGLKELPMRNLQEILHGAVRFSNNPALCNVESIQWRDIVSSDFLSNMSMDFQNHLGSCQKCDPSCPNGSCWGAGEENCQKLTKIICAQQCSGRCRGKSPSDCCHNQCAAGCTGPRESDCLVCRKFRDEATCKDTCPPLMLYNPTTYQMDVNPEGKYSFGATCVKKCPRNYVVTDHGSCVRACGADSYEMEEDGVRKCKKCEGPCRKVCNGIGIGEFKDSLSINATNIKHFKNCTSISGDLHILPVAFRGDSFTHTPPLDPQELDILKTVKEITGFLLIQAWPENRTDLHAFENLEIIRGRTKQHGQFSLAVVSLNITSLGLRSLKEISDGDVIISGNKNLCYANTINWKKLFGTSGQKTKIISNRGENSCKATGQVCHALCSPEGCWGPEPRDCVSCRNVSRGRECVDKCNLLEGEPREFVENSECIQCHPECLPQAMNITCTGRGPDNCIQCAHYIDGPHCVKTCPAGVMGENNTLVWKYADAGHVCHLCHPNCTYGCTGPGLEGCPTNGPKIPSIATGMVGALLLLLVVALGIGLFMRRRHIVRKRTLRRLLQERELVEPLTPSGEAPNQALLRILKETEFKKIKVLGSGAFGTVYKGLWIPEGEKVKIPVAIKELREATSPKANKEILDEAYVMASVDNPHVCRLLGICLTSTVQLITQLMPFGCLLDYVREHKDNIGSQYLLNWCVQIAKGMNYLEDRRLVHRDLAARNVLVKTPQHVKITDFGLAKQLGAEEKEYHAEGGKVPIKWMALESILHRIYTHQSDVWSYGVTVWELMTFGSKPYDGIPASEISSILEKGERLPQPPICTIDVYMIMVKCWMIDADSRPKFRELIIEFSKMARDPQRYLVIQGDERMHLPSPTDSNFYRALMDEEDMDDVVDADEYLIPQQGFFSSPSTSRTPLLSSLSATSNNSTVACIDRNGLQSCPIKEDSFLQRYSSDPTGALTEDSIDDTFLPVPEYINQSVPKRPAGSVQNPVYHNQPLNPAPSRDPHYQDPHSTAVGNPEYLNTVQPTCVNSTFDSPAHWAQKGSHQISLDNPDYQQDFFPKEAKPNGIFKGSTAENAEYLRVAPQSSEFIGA
Outline: as §1

human kinome [17] = target: human kinome (Homo sapiens, UniProt P09769); conditions: FGR; 100 nM; read-out: Percent Control
Outline: as §1

human kinome [18] = target: human kinome (Homo sapiens, UniProt Q9UEE5); conditions: DRAK1 (Entrez STK17A); 100 nM; read-out: Percent Control
Outline: as §1

human kinome [19] = target: human kinome (Homo sapiens, UniProt P10721, V559D); conditions: KIT(V559D); 100 nM; read-out: Percent Control
Outline: as §1

human kinome [20] = target: human kinome (Homo sapiens, UniProt Q9C098); conditions: DCAMKL3 (Entrez DCLK3); 100 nM; read-out: Percent Control
Outline: as §1

human kinome [21] = target: human kinome (Homo sapiens, UniProt P29597); conditions: compound concentration 1000 nM, read-out: Percent Control
human kinome (Homo sapiens, UniProt P29597), sequence (P29597 whole entry): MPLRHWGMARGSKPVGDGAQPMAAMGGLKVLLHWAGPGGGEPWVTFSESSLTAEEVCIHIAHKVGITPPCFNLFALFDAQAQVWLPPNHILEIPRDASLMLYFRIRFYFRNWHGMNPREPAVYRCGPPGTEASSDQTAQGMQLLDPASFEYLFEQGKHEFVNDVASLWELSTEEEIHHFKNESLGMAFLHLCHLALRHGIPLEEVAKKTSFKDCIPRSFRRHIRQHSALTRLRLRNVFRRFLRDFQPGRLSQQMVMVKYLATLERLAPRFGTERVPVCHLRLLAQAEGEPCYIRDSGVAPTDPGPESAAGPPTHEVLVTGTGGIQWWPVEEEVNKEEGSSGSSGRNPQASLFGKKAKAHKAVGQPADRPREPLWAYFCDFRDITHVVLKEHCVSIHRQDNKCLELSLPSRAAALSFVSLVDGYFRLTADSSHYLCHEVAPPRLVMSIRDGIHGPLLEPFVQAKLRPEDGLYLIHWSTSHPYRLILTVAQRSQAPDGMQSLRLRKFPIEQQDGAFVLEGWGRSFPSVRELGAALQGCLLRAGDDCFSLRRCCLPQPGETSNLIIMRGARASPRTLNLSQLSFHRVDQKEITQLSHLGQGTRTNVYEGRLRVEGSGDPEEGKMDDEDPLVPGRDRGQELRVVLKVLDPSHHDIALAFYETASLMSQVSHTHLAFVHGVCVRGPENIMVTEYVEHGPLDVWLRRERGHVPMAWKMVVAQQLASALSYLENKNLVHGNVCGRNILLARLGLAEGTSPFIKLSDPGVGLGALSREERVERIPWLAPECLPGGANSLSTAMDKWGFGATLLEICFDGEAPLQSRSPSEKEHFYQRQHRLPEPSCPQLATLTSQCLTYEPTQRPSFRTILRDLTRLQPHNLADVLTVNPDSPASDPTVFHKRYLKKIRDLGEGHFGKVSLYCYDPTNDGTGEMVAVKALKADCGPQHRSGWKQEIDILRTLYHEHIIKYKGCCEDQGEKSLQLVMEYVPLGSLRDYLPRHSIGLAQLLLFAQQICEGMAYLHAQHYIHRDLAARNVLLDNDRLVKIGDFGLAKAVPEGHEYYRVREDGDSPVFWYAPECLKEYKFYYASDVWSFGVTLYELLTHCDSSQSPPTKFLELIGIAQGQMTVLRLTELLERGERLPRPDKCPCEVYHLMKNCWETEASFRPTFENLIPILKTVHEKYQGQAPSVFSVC
Outline: as §1

human kinome [22] = target: human kinome (Homo sapiens, UniProt P29320); conditions: EPHA3; 100 nM; read-out: Percent Control
Outline: as §1

human kinome [23] = target: human kinome (Homo sapiens, UniProt Q08345); conditions: DDR1; 100 nM; read-out: Percent Control
Outline: as §1

human kinome [24] = target: human kinome (Homo sapiens, UniProt P31152); conditions: ERK4 (Entrez MAPK4); 100 nM; read-out: Percent Control
Outline: as §1

human kinome [25] = target: human kinome (Homo sapiens, UniProt Q9BXA7); conditions: kinase TSSK1B (Entrez TSSK1B); compound concentration 1000 nM; read-out: Percent Control
Outline: as §1

human kinome [26] = target: human kinome (Homo sapiens, UniProt Q16659); conditions: ERK3 (Entrez MAPK6); 100 nM; read-out: Percent Control
human kinome (Homo sapiens, UniProt Q16659), sequence (Q16659 whole entry): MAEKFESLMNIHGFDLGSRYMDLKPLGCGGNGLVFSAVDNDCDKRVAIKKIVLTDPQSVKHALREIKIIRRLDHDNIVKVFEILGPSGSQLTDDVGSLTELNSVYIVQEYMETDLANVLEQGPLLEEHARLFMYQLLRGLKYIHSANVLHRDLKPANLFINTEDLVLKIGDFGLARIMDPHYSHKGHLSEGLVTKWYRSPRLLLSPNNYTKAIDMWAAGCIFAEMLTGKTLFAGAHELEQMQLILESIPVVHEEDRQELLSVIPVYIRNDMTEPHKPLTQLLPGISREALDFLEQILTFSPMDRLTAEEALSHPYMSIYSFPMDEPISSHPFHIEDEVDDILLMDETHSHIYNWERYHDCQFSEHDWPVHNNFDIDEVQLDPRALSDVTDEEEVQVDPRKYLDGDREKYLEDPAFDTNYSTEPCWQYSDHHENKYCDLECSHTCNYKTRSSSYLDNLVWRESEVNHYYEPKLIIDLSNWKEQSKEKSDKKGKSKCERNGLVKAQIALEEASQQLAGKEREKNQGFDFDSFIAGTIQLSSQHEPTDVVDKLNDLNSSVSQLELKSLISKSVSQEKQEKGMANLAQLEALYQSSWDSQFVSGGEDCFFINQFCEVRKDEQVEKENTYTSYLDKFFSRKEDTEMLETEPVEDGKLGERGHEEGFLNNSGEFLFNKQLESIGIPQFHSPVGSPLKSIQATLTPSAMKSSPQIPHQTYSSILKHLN
Outline: as §1

human kinome [27] = target: human kinome (Homo sapiens, UniProt Q9UKE5); conditions: kinase TNIK (Entrez TNIK); compound concentration 1000 nM; read-out: Percent Control
Outline: as §1

human kinome [28] = target: human kinome (Homo sapiens, UniProt Q8WU08); conditions: kinase YANK1 (Entrez STK32A); compound concentration 1000 nM; read-out: Percent Control
Outline: as §1

human kinome [29] = target: human kinome (Homo sapiens, UniProt P36896); conditions: ACVR1B; 100 nM; read-out: Percent Control
Outline: as §1

COc1cc(F)ccc1-c1cc(Nc2cc(CS(C)(=N)=O)ccn2)ncc1F (stereo not shown) [VIP152]
remaining binding at 0.1 µM (human kinome [1]): 100% | remaining binding at 0.1 µM (human kinome [2]): 73% | remaining binding at 1 µM (human kinome [3]; kinase p38-alpha (Entrez MAPK14), compound concentration 1000 nM): 100% | remaining binding at 0.1 µM (human kinome [3]; p38-alpha (Entrez MAPK14), 100 nM): 100% | remaining binding at 0.1 µM (human kinome [4]): 100% | remaining binding at 0.1 µM (human kinome [5]; PIK3CA(E542K), 100 nM): 100% | remaining binding at 1 µM (human kinome [5]; kinase PIK3CA(E542K) (Entrez PIK3CA), compound concentration 1000 nM): 100% | remaining binding at 0.1 µM (human kinome [6]; PIK3CA(E545A), 100 nM): 71% | remaining binding at 1 µM (human kinome [6]; kinase PIK3CA(E545A) (Entrez PIK3CA), compound concentration 1000 nM): 98% | remaining binding at 1 µM (human kinome [7]): 80% | remaining binding at 0.1 µM (human kinome [8]): 100% | remaining binding at 1 µM (human kinome [9]): 83% | remaining binding at 1 µM (human kinome [10]): 81% | remaining binding at 0.1 µM (human kinome [11]): 100% | remaining binding at 0.1 µM (human kinome [12]; PIK3CA(H1047Y), 100 nM): 74% | remaining binding at 1 µM (human kinome [12]; kinase PIK3CA(H1047Y) (Entrez PIK3CA), compound concentration 1000 nM): 85% | remaining binding at 0.1 µM (human kinome [13]): 100% | remaining binding at 0.1 µM (human kinome [14]): 100% | remaining binding at 1 µM (human kinome [15]): 84% | remaining binding at 0.1 µM (human kinome [16]): 100% | remaining binding at 0.1 µM (human kinome [17]): 100% | remaining binding at 0.1 µM (human kinome [18]): 100% | remaining binding at 0.1 µM (human kinome [19]): 100% | remaining binding at 0.1 µM (human kinome [20]): 100% | remaining binding at 1 µM (human kinome [21]; kinase TYK2(JH1domain-catalytic) (Entrez TYK2)): 44% | remaining binding at 1 µM (human kinome [21]; kinase TYK2(JH2domain-pseudokinase) (Entrez TYK2)): 4.8% | remaining binding at 0.1 µM (human kinome [22]): 100% | remaining binding at 0.1 µM (human kinome [23]): 99% | remaining binding at 0.1 µM (human kinome [24]): 100% | remaining binding at 1 µM (human kinome [25]): 92% | remaining binding at 0.1 µM (human kinome [26]): 100% | remaining binding at 1 µM (human kinome [27]): 32% | remaining binding at 1 µM (human kinome [28]): 97% | remaining binding at 0.1 µM (human kinome [29]): 100%
